The record followed here is patent US20240327412A1, “FACTOR XIIA INHIBITORS” (KALVISTA PHARMACEUTICALS LIMITED, priority 2021, published 2024).

One data set has as its target T1, Human Factor XIIa (Homo sapiens, UniProt P00748).
T1 construct: Proteolytic cleavage of FXII to heavy and light chains of FXIIa dramatically increases catalytic activity; purchased Enzyme Research Laboratories
T1 sequence (P00748 373-615 limits assumed): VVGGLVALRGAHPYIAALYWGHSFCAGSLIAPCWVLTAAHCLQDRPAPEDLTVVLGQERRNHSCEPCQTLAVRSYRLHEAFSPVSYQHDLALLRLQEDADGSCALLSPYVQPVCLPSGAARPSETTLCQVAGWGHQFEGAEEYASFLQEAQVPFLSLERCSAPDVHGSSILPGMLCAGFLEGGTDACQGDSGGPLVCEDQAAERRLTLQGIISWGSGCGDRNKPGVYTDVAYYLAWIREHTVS
T1 sequence (P00748 20-372 partner limits assumed): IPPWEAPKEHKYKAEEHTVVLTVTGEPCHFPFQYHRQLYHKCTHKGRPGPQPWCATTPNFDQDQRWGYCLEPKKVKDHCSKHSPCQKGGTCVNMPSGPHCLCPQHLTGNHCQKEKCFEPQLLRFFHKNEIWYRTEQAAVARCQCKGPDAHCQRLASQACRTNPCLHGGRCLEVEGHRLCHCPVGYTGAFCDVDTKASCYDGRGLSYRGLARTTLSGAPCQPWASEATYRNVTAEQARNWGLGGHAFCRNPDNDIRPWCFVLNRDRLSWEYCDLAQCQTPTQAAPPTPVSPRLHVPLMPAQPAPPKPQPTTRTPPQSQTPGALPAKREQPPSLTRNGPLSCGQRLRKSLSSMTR
The data set can be described thus: Determination of FXIIa inhibition (fluorogenic substrate H-DPro-Phe-Arg-AFC, IC50 assay). The data set is classed as biochemical. The conditions noted are these: substrate at Km concentration, 25° C.; category scale; read-out: Human FXII IC50 (nm). In short, it runs like this:
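Human FXIIa incubated at 25° C. with fluorogenic H-DPro-Phe-Arg-AFC at its Km concentration plus varying compound levels. Linear fluorescence increase over 5 min taken as % activity; IC50 is concentration halving uninhibited activity.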

Another data set concerns the target T2, Plasma Kallikrein (Homo sapiens, UniProt P03952).
T2 construct: FXIIa converts plasma prekallikrein (PK) to plasma kallikrein (PKa)
The data set is described as follows: Related protease inhibition: Plasma Kallikrein (fluorogenic substrate at Km). It counts as biochemical. Conditions: class symbols per Table 18, read-out: IC50 (human PKal). In short, it runs like this:
(§1)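 Percent activity is derived from the linear fluorescence increase per minute, measured over 5 min at 25° C. IC50 marks 50% inhibition of uninhibited activity.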

A further data set addresses KLK1 (Homo sapiens, UniProt P06870). The data set is described as follows: Related protease inhibition: KLK1 (fluorogenic substrate at Km). The data set is classed as biochemical. The conditions noted are these: class symbols per Table 18. In short, it runs like this:
as §1

In a further data set the target is FXa (Homo sapiens, UniProt P00742). The data set is described as follows: Related protease inhibition: FXa (fluorogenic substrate at Km). It counts as biochemical. Conditions: class symbols per Table 18. In short, it runs like this: as §1
The target in another data set is Thrombin (Homo sapiens, UniProt P00734). The data set can be described thus: Related protease inhibition: Thrombin (fluorogenic substrate at Km). It counts as biochemical. The conditions noted are these: class symbols per Table 18. On the procedure: (§2) In vitro inhibition of related proteases was determined using an IC50 assay based on standard literature methods (see e.g. Shori et al., Biochem. Pharmacol., 1992, 43, 1209; Bouckaert et al., European Journal of Medicinal Chemistry 110 (2016) 181). Human serine protease enzyme Plasma Kallikrein, KLK1, FXa, Plasmin, Thrombin and Trypsin were assayed for enzymatic activity using an appropriate fluorogenic substrate at Km concentration, FXIa at fixed substrate concentration of 100 μM and various concentrations of the test compound. Protease activity was measured by monitoring the accumulation of liberated fluorescence from the substrate over 5 min at 25° C. The linear rate of fluorescence increase per minute was expressed as percentage (%) activity. IC50 values were calculated as the concentration of inhibitor giving 50% inhibition of the uninhibited enzyme activity (100%).

Data set [1] in a line: Pharmacokinetics after single intravenous and single oral dose in rats. It counts as in vivo. Conditions: rat, plasma, male Sprague-Dawley rats, single iv (nominal 1 mg/kg) and single po (nominal 5 mg/kg) dose; for half-life: Phoenix WinNonlin; for bioavailability: oral bioavailability, 10% DMSO/10% Cremophor EL/80% SWFI. The procedure: Pharmacokinetic studies of the compounds in Table 19 were performed to assess the pharmacokinetics following a single intravenous dose and a single oral dose in male Sprague-Dawley rats. Two rats were given a single intravenous dose of 1 mL/kg of a nominal 1 mg/ml (1 mg/kg) composition of test compound in 10% DMSO/10% Cremophor EL/80% SWFI vehicle. Two rats were given a single oral dose of 5 ml/kg of a nominal 1 mg/mL (5 mg/kg) composition of test compound in 10% DMSO/10% Cremophor EL/80% SWFI vehicle.
Following intravenous dosing, blood samples were collected over a period of 12 h. Sample times were 2, 5, 15 and 30 min then 1, 2, 4, 6, and 12 h. Following oral dosing, blood samples were collected over a period of 24 h. Sample times were 5, 15 and 30 min then 1, 2, 4, 6, 8, 12 and 24 h.
Following collection, blood samples were centrifuged and the plasma fraction analysed for concentration of test compound by LCMS. Oral bioavailability and half-life calculations from these studies were obtained using Phoenix WinNonlin (v8.0) and are shown below: […]

The target in a further data set is Plasmin (Homo sapiens, UniProt P00747). The data set is described as follows: Related protease inhibition: Plasmin (fluorogenic substrate at Km). It counts as biochemical. The conditions noted are these: class symbols per Table 18. The procedure:
as §2

Another data set deals with Trypsin (Homo sapiens, UniProt P07477). The data set is described as follows: Related protease inhibition: Trypsin (fluorogenic substrate at Km). It counts as biochemical. Conditions: class symbols per Table 18. On the procedure:
as §2

Chain of FXa (P00742 235-488 limits assumed): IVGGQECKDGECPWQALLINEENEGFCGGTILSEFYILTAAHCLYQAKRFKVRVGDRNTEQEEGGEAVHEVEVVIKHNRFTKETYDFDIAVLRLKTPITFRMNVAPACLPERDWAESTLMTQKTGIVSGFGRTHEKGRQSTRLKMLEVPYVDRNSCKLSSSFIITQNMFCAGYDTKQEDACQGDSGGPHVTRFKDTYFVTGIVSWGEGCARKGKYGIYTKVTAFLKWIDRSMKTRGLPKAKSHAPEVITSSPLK
Chain of FXa (P00742 41-179 partner limits assumed): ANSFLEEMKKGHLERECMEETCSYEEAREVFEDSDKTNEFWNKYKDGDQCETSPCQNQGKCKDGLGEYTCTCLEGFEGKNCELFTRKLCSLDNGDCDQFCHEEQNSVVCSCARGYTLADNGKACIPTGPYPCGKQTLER
Chain of Plasmin (P00747 581-810 limits assumed): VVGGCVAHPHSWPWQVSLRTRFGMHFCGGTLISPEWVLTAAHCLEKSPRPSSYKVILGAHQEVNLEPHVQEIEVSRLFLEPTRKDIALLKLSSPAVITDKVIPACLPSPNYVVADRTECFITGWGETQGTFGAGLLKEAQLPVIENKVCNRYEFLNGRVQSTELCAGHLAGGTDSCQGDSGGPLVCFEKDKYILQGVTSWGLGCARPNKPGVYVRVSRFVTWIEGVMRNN
Chain of Plasmin (P00747 97-580 partner limits assumed): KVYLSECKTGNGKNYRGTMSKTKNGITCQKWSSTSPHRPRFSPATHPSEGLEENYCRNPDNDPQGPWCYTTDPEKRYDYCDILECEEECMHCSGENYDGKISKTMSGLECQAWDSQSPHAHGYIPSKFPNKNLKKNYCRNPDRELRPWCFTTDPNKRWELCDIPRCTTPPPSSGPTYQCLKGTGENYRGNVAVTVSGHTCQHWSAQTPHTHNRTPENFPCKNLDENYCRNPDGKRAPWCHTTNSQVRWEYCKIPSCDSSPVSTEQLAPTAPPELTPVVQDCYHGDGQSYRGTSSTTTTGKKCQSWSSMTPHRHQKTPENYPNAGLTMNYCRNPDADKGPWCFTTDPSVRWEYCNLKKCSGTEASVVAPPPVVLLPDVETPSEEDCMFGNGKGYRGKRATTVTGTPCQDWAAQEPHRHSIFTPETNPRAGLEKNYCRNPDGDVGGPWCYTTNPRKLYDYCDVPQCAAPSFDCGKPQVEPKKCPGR
T2 sequence (P03952 391-638 limits assumed): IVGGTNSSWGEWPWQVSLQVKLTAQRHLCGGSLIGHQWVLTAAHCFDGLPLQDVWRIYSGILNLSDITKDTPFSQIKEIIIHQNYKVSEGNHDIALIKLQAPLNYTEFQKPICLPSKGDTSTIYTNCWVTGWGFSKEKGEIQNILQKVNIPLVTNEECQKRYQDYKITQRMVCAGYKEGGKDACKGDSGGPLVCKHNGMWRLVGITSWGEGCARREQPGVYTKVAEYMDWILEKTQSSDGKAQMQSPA
T2 sequence (P03952 20-390 partner limits assumed): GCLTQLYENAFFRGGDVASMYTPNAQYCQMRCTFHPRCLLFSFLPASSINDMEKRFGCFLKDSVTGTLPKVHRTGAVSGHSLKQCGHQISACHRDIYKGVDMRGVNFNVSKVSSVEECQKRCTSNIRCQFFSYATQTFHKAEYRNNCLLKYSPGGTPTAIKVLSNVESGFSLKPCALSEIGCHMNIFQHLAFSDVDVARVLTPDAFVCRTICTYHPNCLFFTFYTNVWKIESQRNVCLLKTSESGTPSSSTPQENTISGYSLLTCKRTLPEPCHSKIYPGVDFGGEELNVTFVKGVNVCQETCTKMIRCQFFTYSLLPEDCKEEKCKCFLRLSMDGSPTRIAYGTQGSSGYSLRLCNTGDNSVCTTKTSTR
Chain of KLK1 (P06870 25-262): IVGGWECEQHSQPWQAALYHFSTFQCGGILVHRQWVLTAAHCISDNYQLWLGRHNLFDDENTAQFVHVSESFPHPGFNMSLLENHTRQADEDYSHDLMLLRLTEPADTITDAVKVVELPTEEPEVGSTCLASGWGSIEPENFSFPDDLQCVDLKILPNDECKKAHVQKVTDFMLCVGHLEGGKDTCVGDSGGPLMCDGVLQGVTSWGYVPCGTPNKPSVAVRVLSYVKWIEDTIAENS

Take `Nc1nccc2c(NCC34CC(COC5CCn6ccnc6C5)(C3)C4)cccc12` (single isomer, unassigned) [Example 1002.1, (S*)-N5-((3-(((5,6,7,8-tetrahydroimidazo[1,2-a]pyridin-7-yl)oxy)methyl)bicyclo[1.1.1]pentan-1-yl)methyl)isoquinoline-1,5-diamine]: the IC50 – broadly, the concentration at which inhibition is half-maximal – on Human Factor XIIa was 100 to 300 nM; at Plasma Kallikrein it was more than 40 µM; on KLK1, 3 to 10 µM; on FXa it was 10 to 40 µM; at Thrombin, 3 to 10 µM. The half-life (in general, the time in which the quantity being followed falls by half) in data set [1] worked out at 441 min. The bioavailability (commonly dose-corrected exposure relative to a reference, in per cent) in data set [1] stood at 41%.
Consider `CN1Cc2cc(OCC34COC(CNc5cccc6c(N)nccc56)(C3)C4)ccc2C1=O` [Example 6621, 5-((1-(((1-aminoisoquinolin-5-yl)amino)methyl)-2-oxabicyclo[2.1.1]hexan-4-yl)methoxy)-2-methylisoindolin-1-one], for which the IC50 was 100 to 300 nM at Human Factor XIIa; more than 40 µM on Plasma Kallikrein; 3 to 10 µM on KLK1; more than 40 µM at FXa; more than 40 µM at Plasmin; more than 40 µM on Thrombin. Moreover, on Trypsin, the IC50 is more than 40 µM.
In the case of `Nc1nccc2c(NCC34CC(COc5ccn6cnnc6c5)(CO3)C4)cccc12` [Example 6629, N5-((4-(([1,2,4]triazolo[4,3-a]pyridin-7-yloxy)methyl)-2-oxabicyclo[2.1.1]hexan-1-yl)methyl)isoquinoline-1,5-diamine], the IC50 is 10 to 100 nM at Human Factor XIIa; more than 40 µM at Plasma Kallikrein; 1 to 3 µM on KLK1; more than 40 µM against FXa; 10 to 40 µM at Plasmin; more than 40 µM at Thrombin. The IC50 against Trypsin was 10 to 40 µM.
Consider `Nc1nccc2c(NCC34CC(COc5ccn6cnnc6c5)(CCO3)C4)cccc12` [Example 10926, 5-N-[[5-([1,2,4]Triazolo[4,3-a]pyridin-7-yloxymethyl)-2-oxabicyclo[3.1.1]heptan-1-yl]methyl]isoquinoline-1,5-diamine], for which the IC50 on Human Factor XIIa was 10 to 100 nM; at Plasma Kallikrein, more than 40 µM; against KLK1 it was 3 to 10 µM; against FXa it was more than 40 µM; on Plasmin, more than 40 µM; against Thrombin, more than 40 µM. Also, the IC50 against Trypsin was in the range of 3 to 10 µM.
Regarding `Cc1cc(OCC23CCOC(CNc4cccc5c(N)nccc45)(C2)C3)cc(=O)n1C` [Example 10928, 4-((1-(((1-Aminoisoquinolin-5-yl)amino)methyl)-2-oxabicyclo[3.1.1]heptan-5-yl)methoxy)-1,6-dimethylpyridin-2(1H)-one], the IC50 is 10 to 100 nM on Human Factor XIIa; more than 40 µM at Plasma Kallikrein; 10 to 40 µM against KLK1; 10 to 40 µM at FXa; more than 40 µM on Plasmin; more than 40 µM on Thrombin. The IC50 at Trypsin fell in the range of 10 to 40 µM.
Turning to `Cn1ccc(OCC23CCOC(CNc4cccc5c(N)nccc45)(C2)C3)nc1=O` [Example 10940, 4-((1-(((1-aminoisoquinolin-5-yl)amino)methyl)-2-oxabicyclo[3.1.1]heptan-5-yl)methoxy)-1-methylpyrimidin-2(1H)-one], the IC50 on Human Factor XIIa is 100 to 300 nM; at Plasma Kallikrein, more than 40 µM; against KLK1, 10 to 40 µM; against FXa it was more than 40 µM; against Plasmin it was more than 40 µM; on Thrombin, more than 40 µM. On Trypsin, the IC50 fell in the range of 10 to 40 µM.
`Cn1ccc(OCC23CC(CNc4cccc5c(N)nccc45)(CCO2)C3)cc1=O` [Example 11001, 4-((5-(((1-aminoisoquinolin-5-yl)amino)methyl)-2-oxabicyclo[3.1.1]heptan-1-yl)methoxy)-1-methylpyridin-2(1H)-one]: the IC50 on Human Factor XIIa is 100 to 300 nM; on Plasma Kallikrein, more than 40 µM; at KLK1 it was 10 to 40 µM; against FXa it was more than 40 µM; on Plasmin it was more than 40 µM; against Thrombin, more than 40 µM. Besides, the IC50 on Trypsin was in the range of 10 to 40 µM.
For the compound `Cn1ccc(OCC23CN(C(=O)CCc4ccccc4)C(CNc4cccc5c(N)nccc45)(C2)C3)cc1=O` [Example 12016, 4-((1-(((1-aminoisoquinolin-5-yl)amino)methyl)-2-(3-phenylpropanoyl)-2-azabicyclo[2.1.1]hexan-4-yl)methoxy)-1-methylpyridin-2(1H)-one], the IC50 at Human Factor XIIa was in the range of 10 to 100 nM. In data set [1], this compound registered a half-life of 64.8 min and a bioavailability of 0.4%.
Consider `Cn1ccc(OCC23CN(CCCc4ccccc4)C(CNc4cccc5c(N)nccc45)(C2)C3)cc1=O` [Example 12019, 4-((1-(((1-Aminoisoquinolin-5-yl)amino)methyl)-2-(3-phenylpropyl)-2-azabicyclo[2.1.1]hexan-4-yl)methoxy)-1-methylpyridin-2(1H)-one], for which the IC50 was 10 to 100 nM on Human Factor XIIa; more than 40 µM at Plasma Kallikrein; 1 to 3 µM against KLK1; more than 40 µM at FXa; more than 40 µM against Plasmin; more than 40 µM against Thrombin. Moreover, the IC50 against Trypsin is more than 40 µM.
Consider `Cn1ccc(OCC23CN(C(=O)Nc4ccccc4)C(CNc4cccc5c(N)nccc45)(C2)C3)cc1=O` [Example 12036, 1-(((1-aminoisoquinolin-5-yl)amino)methyl)-4-(((1-methyl-2-oxo-1,2-dihydropyridin-4-yl)oxy)methyl)-N-phenyl-2-azabicyclo[2.1.1]hexane-2-carboxamide], for which the IC50 is 1 to 10 nM on Human Factor XIIa; 10 to 40 µM on Plasma Kallikrein; 1 to 3 µM against KLK1; 10 to 40 µM against FXa; 3 to 10 µM on Plasmin; more than 40 µM against Thrombin. At Trypsin, this compound came in with an IC50 of more than 40 µM.
Take `Cc1cc(OCC23CN(C(=O)NCc4ccccc4)C(CNc4cccc5c(N)nccc45)(C2)C3)cc(=O)n1C` [Example 12038, 1-(((1-aminoisoquinolin-5-yl)amino)methyl)-N-benzyl-4-(((1,6-dimethyl-2-oxo-1,2-dihydropyridin-4-yl)oxy)methyl)-2-azabicyclo[2.1.1]hexane-2-carboxamide]: the IC50 is 1 to 10 nM on Human Factor XIIa; 3 to 10 µM on Plasma Kallikrein; 3 to 10 µM against KLK1; 1 to 3 µM against FXa; 10 to 40 µM against Plasmin; more than 40 µM against Thrombin. The compound further gave an IC50 on Trypsin of 10 to 40 µM.
